Data set [1] can be described thus: solubility of AFQ056 at 37° C. in different aqueous media (FIG. 2). The data set is classed as physicochemical. The note with it: pure aqueous solution with raising ethanol levels. As to the method: FIG. 2 graphically depicts the solubility of AFQ056 at 37° C. in different aqueous media. […] Up to the amount of about 20% of ethanol in the solutions, the LDAO (Lauryldimethylamine N-oxide) in water solution and the water-ethanol solution show a different solubility pattern of AFQ056. In the presence of about 40% ethanol in the solutions, both the LDAO in water solution and the water-ethanol solution show a similar solubility for AFQ056.
The solubility pattern of AFQ056 was examined ([…]). […] In pure aqueous solutions the solubility of AFQ056 steadily increases with raising ethanol concentrations. The solubility pattern of AFQ056 in a LDAO water-ethanol solution is distinct from the solubility pattern of AFQ056 in a pure aqueous solution only up to an amount of 20% ethanol present in the solution. […] Immediate release forms of AFQ056 have therefore the inherent risk of dose dumping and can create severe consequences for the patient if ethanol-containing beverages are consumed in parallel. Particle size distribution is also an important factor influencing the dissolution of a drug substance and is known to influence the drug release from matrix tablets.

Data set [2] deals with L-dopa induced dyskinesias. Put plainly: earlier studies of IR AFQ056 in Parkinson's disease patients. The data set is classed as in vivo, human. The note with it: IR formulation. The text has this:
AFQ056 has previously been formulated as a hard gelatin capsule and as a powder for oral suspension, both with immediate release (IR) properties. […] The IR formulation used in these studies required twice-daily dosing.

Data set [3] in a line: distribution coefficient Log P of drug substance. The data set is classed as physicochemical. As to the method: AFQ056 is a chiral molecule with 3 asymmetric carbon atoms and has a melting point of about 115° C. One single polymorph has been identified.
Data set [4] can be described thus: solubility in water and in ethanol at room temperature. The data set is classed as physicochemical. The note with it: for solubility: room temperature. The source says:
Particle size distribution is also an important factor influencing the dissolution of a drug substance and is known to influence the drug release from matrix tablets.

A short description of data set [5]: half life of AFQ056 used to set the wash out period. The following applies: human, in vivo, oral; 50 mg and 100 mg doses. The source says: The study has a 3-Latin, 5-sequences×5-period open-label design that is suitable for comparing the pharmacokinetics including relative bioavailability of three modified release formulations of AFQ056. The immediate release capsule formulation (size O, IR) is used as a reference to enable comparisons with data obtained in previously completed trials. This study design allows the comparison of pharmacokinetic profile of AFQ056 from three modified release (MR) formulations relative to the IR formulation under fasted conditions, and to assess the food effect on the pharmacokinetics of the three MR forms. Latin-square design is selected as it offers maximum precision of comparison across different treatments with minimum number of study subjects. The cross-over design permits investigation of all five treatment conditions within each subject and is used to account for interindividual variability. […] Sampling for 72 hours post dose is considered sufficient for characterizing the PK profiles of all formulations, including the MR forms.

The conditions of data set [6]: Roberts et al., cited from earlier work.

As a reminder, the logP is the decadic logarithm of the partition coefficient of the neutral form, usually between octanol and water. A higher logP goes with a more lipophilic compound. Broadly, the solubility is the concentration that dissolves in the medium under given conditions. The term half-life denotes the time in which the quantity being followed falls by half. A low value points to rapid decline.

≈ marks a conversion by molar mass, not a printed value. Read-outs that look alike come from different tables or passages of the source.

On to `COC(=O)N1CC[C@@H]2[C@H]1CCC[C@@]2(O)C#Cc1cccc(C)c1` [AFQ056, (−)-(3aR,4S,7aR)-Octahydro-4-hydroxy-4-[(3-methylphenyl)ethynyl]-1H-indole-1-carboxylic acid methyl ester], for which the “solubility with raising ethanol levels” value in data set [1] is given as “steadily increasing solubility”. Also, in data set [2] (Parkinson's disease patients), the “effect on L-dopa induced dyskinesias” value is on record as “reduction in L-dopa induced dyskinesias” and the “effect on underlying Parkinsonian motor symptoms” value was “without inducing any clinically or statistically significant worsening”. In addition, the “most frequent adverse events” value in data set [2] (patients) is “dizziness, dyskinesia, nausea, fatigue, and hallucinations”. This compound also had a logP in data set [3] of 4.7. In addition, the solubility in data set [4] (organic solvent or mixture, ethanol, read-out: Solubility in ethanol) is about 53000 µg/mL (≈ 169 mM). For the same compound, the “solubility in organic solvents (in words)” value in data set [4] (organic solvents such as ethanol) was “soluble”. Also, the “solubility in water (in words)” value in data set [4] (water) was “hardly soluble”. Moreover, in data set [4] (water, read-out: Solubility in water), the solubility was about 20 µg/mL (≈ 0.0638 mM). This compound showed a half-life in data set [5] of 7 to 17 h.
In the case of `CC(=O)Oc1ccccc1C(=O)O` [Aspirin], the Solubility in ethanol entry in data set [6] (ethanol) is “about 237 mg/ml”. For the same compound, in data set [6] (water), the Solubility in water was 8400 µg/mL (≈ 46.6 mM).

These data come from patent publication US12653807B2, “Modified release formulation for (-)-(3AR,4S,7AR)-4-hydroxy-4-m-tolylethynyl-octahydro-indole-1-carboxylic acid methyl ester” (NOVARTIS AG, priority 2013, dated 2026).
